# Tested on: ABC superfamily genes in MCF-7/PAX
# Assay: Expression of genes encoding ABC transporters, qPCR
# Format: cell-based, human
# Method: Based on the fact that compounds K3, K4, K7 sensitized drug-resistant cell lines (HOC/ADR, MCF-7/PAX) and modulated ATPase activity of one from the ABC proteins (P-gp), we verified the potential of these compounds to affect ABC superfamily gene expression. The ovarian and breast cancer cell lines (parental cells and resistant sub-line) were analysed for the expression profile of genes encoding the ABC proteins in the previous works[18]–[20]. […] After 48 h, the effect of compounds alone or in the combination with cytostatics was observed (Supplementary Tables 1, Table 2).
# To determine the impact of selected compounds on the expression of genes encoding ABC transporter, HOC/ADR and MCF-7/PAX cells were seeded for 24 h into 5 cm Petri dishes with DMEM medium at the cell density 1 × 10^5 cells/mL. Afterwards, the cells were washed 1× with PBS and new fresh DMEM supplemented with K3, K4, and K7 (in concentration corresponding to their IC10 value) alone or combined with cytostatics (Adriamycin or paclitaxel in concentration corresponding to their IC25 value) was added. In the experiment, positive and negative control was also included (positive—untreated cells, negative—cells treated only with cytostatics). After 48 h exposure, the cells were washed once with PBS and released from the surface by using the above-mentioned trypsin–EDTA procedure. The enzyme reaction was stopped by medium addition and the cells were centrifuged (3200×g; 10 min, 4 °C). The supernatants were removed and before the next centrifugation, the pellets were resuspended in 1.5 mL of cooled PBS (5400×g; 10 min, 4 °C). After the second washing step, the cells were centrifuged another time (10,000×g; 3 min, 4 °C). Subsequently, 1 mL of Trizol (Invitrogen) was added to the pellets and the compounds were stored − 80 °C.
# The RNA concentration of selenoester treated samples was determined using QuantiT RiboGreen RNA Assay Kit and Infinite M200 plate reader (Tecan, Männedor, Switzerland). The cDNA was synthesized from 0.5 µg of total RNA by RevertAid First Strand Synthesis cDNA Kit (MBI Fermentas, Vilnius, Lithuania). To determine the quality of cDNA, the ubiquitin C gene fragment was amplified. The experiment was performed in 384-well block by using ViiA7 Real-Time PCR System (Life Technologies, Camarillo, California, United States). A master mix contained 0.25 µL of 20× TaqMan Gene Expression Assay, 1 µL of 5× HotFIREPol Probe qPCR Mix Plus, 1.75 µL of RNase free water and 2 µL of 8× diluted cDNA. The final reaction volume was 5 µL. The PCR parameters were as follows: initial hold (50 °C for 2 min), denaturation (95 °C for 10 min), followed by 45 cycles (denaturation at 95 °C for 15 s, annealing at 60 °C for 1 min). After each cycle, the fluorescent signal was determined. For each compound, duplicates were analysed and those with a standard deviation higher than 0.5 Ct were re-analysed. A quantitate real-time PCR was followed by MIQE guidelines. To compare the relative transcript levels of genes, the software REST 2009 (Qiagen, Hilden, Germany) was used.
# Table 2. Effect of selenoesters either on the expression of the ABC gene superfamily in paclitaxel-resistant breast cancer cell line (MCF-7/PAX).
# Gene expression of ABC transporters were estimated using comercial predesigned Taqman Gene Expression Assays (Life technologies). TaqMan Gene Expression Assays are based on 5´ nuclease chemistry, and each assay contains the primer and probe set for target of interest. Taqman assays IDs and GenBank Accession numbers of reference sequencies identifying their location and amplicon lengths are included in the Supplementary Table I. * Relative transcript levels (P-value ) in treated and non-treated cancer cell lines were compared using REST 2009 software.
smiles,measurement,setting,value
CC(=O)C[Se]C(=O)c1ccc(Br)cc1 [K3],number of ABC genes with altered expression,,30
same,ABCA2 Expression Difference,"IC10 alone, 48 h",0.188
same,ABCA2 Treated vs. Untr.,"IC10 alone, 48 h",DOWN
same,ABCA3 Expression Difference,"IC10 alone, 48 h",0.481
same,ABCA3 Treated vs. Untr.,"IC10 alone, 48 h",DOWN
same,ABCA4 Expression Difference,"IC10 alone, 48 h",27.38
same,ABCA5 Expression Difference,"IC10 alone, 48 h",0.559
same,ABCA5 Treated vs. Untr.,"IC10 alone, 48 h",DOWN
same,ABCA7 Expression Difference,"IC10 alone, 48 h",0.5100
same,ABCA7 Treated vs. Untr.,"IC10 alone, 48 h",DOWN
same,ABCA12 Expression Difference,"IC10 alone, 48 h",1.149
same,ABCB1 Expression Difference,"IC10 alone, 48 h",0.401
same,ABCB1 Treated vs. Untr.,"IC10 alone, 48 h",DOWN
same,ABCB2 Expression Difference,"IC10 alone, 48 h",0.354
same,ABCB2 Treated vs. Untr.,"IC10 alone, 48 h",DOWN
same,ABCB3 Expression Difference,"IC10 alone, 48 h",0.235
same,ABCB3 Treated vs. Untr.,"IC10 alone, 48 h",DOWN
same,ABCB6 Expression Difference,"IC10 alone, 48 h",0.340
same,ABCB6 Treated vs. Untr.,"IC10 alone, 48 h",DOWN
same,ABCB7 Expression Difference,"IC10 alone, 48 h",0.143
same,ABCB7 Treated vs. Untr.,"IC10 alone, 48 h",DOWN
same,ABCB8 Expression Difference,"IC10 alone, 48 h",0.488
same,ABCB8 Treated vs. Untr.,"IC10 alone, 48 h",DOWN
same,ABCB9 Expression Difference,"IC10 alone, 48 h",0.422
same,ABCB9 Treated vs. Untr.,"IC10 alone, 48 h",DOWN
same,ABCB10 Expression Difference,"IC10 alone, 48 h",0.922
same,ABCB10 Treated vs. Untr.,"IC10 alone, 48 h",DOWN
same,ABCC1 Expression Difference,"IC10 alone, 48 h",0.272
same,ABCC1 Treated vs. Untr.,"IC10 alone, 48 h",DOWN
same,ABCC2 Expression Difference,"IC10 alone, 48 h",0.076
same,ABCC2 Treated vs. Untr.,"IC10 alone, 48 h",DOWN
same,ABCC3 Expression Difference,"IC10 alone, 48 h",15.79
same,ABCC4 Expression Difference,"IC10 alone, 48 h",0.221
same,ABCC4 Treated vs. Untr.,"IC10 alone, 48 h",DOWN
same,ABCC5 Expression Difference,"IC10 alone, 48 h",1.010
same,ABCC6 Expression Difference,"IC10 alone, 48 h",0.958
same,ABCC6 Treated vs. Untr.,"IC10 alone, 48 h",DOWN
same,ABCC8 Expression Difference,"IC10 alone, 48 h",0.648
same,ABCC8 Treated vs. Untr.,"IC10 alone, 48 h",DOWN
same,ABCC10 Expression Difference,"IC10 alone, 48 h",0.171
same,ABCC10 Treated vs. Untr.,"IC10 alone, 48 h",DOWN
same,ABCD1 Expression Difference,"IC10 alone, 48 h",0.123
same,ABCD1 Treated vs. Untr.,"IC10 alone, 48 h",DOWN
same,ABCD3 Expression Difference,"IC10 alone, 48 h",0.267
same,ABCD3 Treated vs. Untr.,"IC10 alone, 48 h",DOWN
same,ABCD4 Expression Difference,"IC10 alone, 48 h",0.971
same,ABCE1 Expression Difference,"IC10 alone, 48 h",0.552
same,ABCE1 Treated vs. Untr.,"IC10 alone, 48 h",DOWN
same,ABCF1 Expression Difference,"IC10 alone, 48 h",2.388
same,ABCF2 Expression Difference,"IC10 alone, 48 h",0.625
same,ABCF2 Treated vs. Untr.,"IC10 alone, 48 h",DOWN
same,ABCF3 Expression Difference,"IC10 alone, 48 h",0.487
same,ABCF3 Treated vs. Untr.,"IC10 alone, 48 h",DOWN
same,ABCG1 Expression Difference,"IC10 alone, 48 h",0.132
same,ABCG1 Treated vs. Untr.,"IC10 alone, 48 h",DOWN
same,ABCG2 Expression Difference,"IC10 alone, 48 h",0.250
same,ABCG2 Treated vs. Untr.,"IC10 alone, 48 h",DOWN
same,ABCG4 Expression Difference,"IC10 alone, 48 h",0.204
same,ABCG4 Treated vs. Untr.,"IC10 alone, 48 h",DOWN
same,decrease of expression of ABCB1 (P-gp) encoding gene,"IC10 alone, 48 h",60%
same,downregulation of expression of ABCC1 (MRP1),"IC10 alone, 48 h",73%
same,downregulation of expression of ABCG2,"IC10 alone, 48 h",75%
